Tested on: patients with advanced cancer
Assay: Phase I clinical trial, daily versus pulsatile dosing of (−)-gossypol: adverse events graded by NCI-CTCAE v3 (Daily N = 38, BID × 3 d N = 21, Weekly N = 12)
Format: in vivo, human
Method: A phase I clinical trial was carried out to compare the maximum tolerated dose and safety of daily (i.e., continuous) versus pulsatile (i.e., intermittent) dosing of (−)-gossypol in patients with advanced cancer. A secondary objective of this study was to identify any anti-tumor activity of (−)-gossypol. Patients were treated with increasing doses of (−)-gossypol according to the following dosing schedules: “Daily” dosing: 5 to 60 mg/day of (−)-gossypol on 21 days per 28 day cycle; “BID×3d” dosing: 30 to 80 mg BID of (−)-gossypol on 3 consecutive days (e.g., Monday-Tuesday-Wednesday) repeated every other week per 28 day cycle; and “Weekly” dosing: 80 to 200 mg of (−)-gossypol once weekly per 28 day cycle. Adverse events (AEs) were graded by NCI-CTCAE v3.

## Cc1cc2c(C(C)C)c(O)c(O)c(C=O)c2c(O)c1-c1c(C)cc2c(C(C)C)c(O)c(O)c(C=O)c2c1O [(−)-gossypol]
BID × 3 d, Grade ½
  ALT increase: 2 (10) N (%)
  AST increase: 2 (10) N (%)
  Abdominal discomfort: 1 (5) N (%)
  Abdominal distention: 3 (14) N (%)
  Abdominal pain: 5 (24) N (%)
  Albumin decreased: 0 N (%)
  Alkaline phosphatase increase: 2 (10) N (%)
  Anorexia or decreased appetite: 10 (48) N (%)
  Any AE: 16 (76) N (%)
  Back pain: 1 (5) N (%)
  Constipation: 6 (29) N (%)
  Cough: 0 N (%)
  Creatinine increased: 2 (10) N (%)
  Creatinine phosphokinase increase: 0 N (%)
  Dehydration: 3 (14) N (%)
  Diarrhea: 8 (38) N (%)
  Dizziness: 2 (10) N (%)
  Dry mouth: 2 (10) N (%)
  Dysgeusia: 2 (10) N (%)
  Dyspnea: 5 (24) N (%)
  Fatigue/Asthenia: 15 (72) N (%)
  Flatulence: 2 (10) N (%)
  Headache: 1 (5) N (%)
  Hepatic encephalopathy: 0 N (%)
  Hyperbilirubinaemia: 0 N (%)
  Hyperkalemia: 1 (5) N (%)
  Hypocalcemia: 0 N (%)
  Hypokalemia: 1 (5) N (%)
  Hyponatremia: 1 (5) N (%)
  Infection: 0 N (%)
  Insomnia: 1 (5) N (%)
  Mental status changes: 0 N (%)
  Nausea: 14 (67) N (%)
  Pain: 3 (14) N (%)
  Pancreatitis: 0 N (%)
  Peripheral edema: 0 N (%)
  Pleural Effusion: 0 N (%)
  Pneumatosis intestinalis: 0 N (%)
  Pneumonia: 0 N (%)
  Proteinurea: 2 (10) N (%)
  Pyrexia: 3 (14) N (%)
  Renal Failure: 0 N (%)
  Sinusitis: 0 N (%)
  Small intestinal obstruction (ileus): 0 N (%)
  Troponin I or T increased: 1 (5) N (%)
  Urinary Tract Infection: 2 (10) N (%)
  Vomiting: 9 (43) N (%)
  Weight decreased: 4 (19) N (%)
  White blood cells increased: 2 (10) N (%)
BID × 3 d, Grade ¾
  ALT increase: 0 N (%)
  AST increase: 0 N (%)
  Abdominal discomfort: 0 N (%)
  Abdominal distention: 0 N (%)
  Abdominal pain: 2 (10) N (%)
  Albumin decreased: 0 N (%)
  Alkaline phosphatase increase: 0 N (%)
  Anorexia or decreased appetite: 1 (5) N (%)
  Any AE: 11 (52) N (%)
  Back pain: 0 N (%)
  Constipation: 0 N (%)
  Cough: 0 N (%)
  Creatinine increased: 0 N (%)
  Creatinine phosphokinase increase: 1 (5) N (%)
  Dehydration: 2 (10) N (%)
  Diarrhea: 1 (5) N (%)
  Dizziness: 0 N (%)
  Dry mouth: 0 N (%)
  Dysgeusia: 0 N (%)
  Dyspnea: 0 N (%)
  Fatigue/Asthenia: 1 (5) N (%)
  Flatulence: 0 N (%)
  Headache: 0 N (%)
  Hepatic encephalopathy: 1 (5) N (%)
  Hyperbilirubinaemia: 1 (5) N (%)
  Hyperkalemia: 1 (5) N (%)
  Hypocalcemia: 0 N (%)
  Hypokalemia: 3 (14) N (%)
  Hyponatremia: 1 (5) N (%)
  Infection: 0 N (%)
  Insomnia: 0 N (%)
  Mental status changes: 0 N (%)
  Nausea: 0 N (%)
  Pain: 1 (5) N (%)
  Pancreatitis: 1 (5) N (%)
  Peripheral edema: 0 N (%)
  Pleural Effusion: 0 N (%)
  Pneumatosis intestinalis: 1 (5) N (%)
  Pneumonia: 1 (5) N (%)
  Proteinurea: 0 N (%)
  Pyrexia: 0 N (%)
  Renal Failure: 1 (5) N (%)
  Sinusitis: 0 N (%)
  Small intestinal obstruction (ileus): 1 (5) N (%)
  Troponin I or T increased: 0 N (%)
  Urinary Tract Infection: 0 N (%)
  Vomiting: 2 (10) N (%)
  Weight decreased: 0 N (%)
  White blood cells increased: 0 N (%)
Daily, Grade ½
  ALT increase: 7 (18) N (%)
  AST increase: 6 (16) N (%)
  Abdominal discomfort: 0 N (%)
  Abdominal distention: 4 (11) N (%)
  Abdominal pain: 8 (21) N (%)
  Albumin decreased: 0 N (%)
  Alkaline phosphatase increase: 6 (16) N (%)
  Anorexia or decreased appetite: 19 (50) N (%)
  Any AE: 38 (100) N (%)
  Back pain: 6 (16) N (%)
  Constipation: 9 (24) N (%)
  Cough: 8 (21) N (%)
  Creatinine increased: 6 (16) N (%)
  Creatinine phosphokinase increase: 0 N (%)
  Dehydration: 9 (24) N (%)
  Diarrhea: 13 (34) N (%)
  Dizziness: 7 (18) N (%)
  Dry mouth: 3 (8) N (%)
  Dysgeusia: 2 (5) N (%)
  Dyspnea: 6 (16) N (%)
  Fatigue/Asthenia: 31 (81) N (%)
  Flatulence: 1 (3) N (%)
  Headache: 5 (13) N (%)
  Hepatic encephalopathy: 0 N (%)
  Hyperbilirubinaemia: 2 (5) N (%)
  Hyperkalemia: 2 (5) N (%)
  Hypocalcemia: 2 (5) N (%)
  Hypokalemia: 1 (3) N (%)
  Hyponatremia: 1 (3) N (%)
  Infection: 1 (3) N (%)
  Insomnia: 7 (18) N (%)
  Mental status changes: 0 N (%)
  Nausea: 22 (58) N (%)
  Pain: 6 (16) N (%)
  Pancreatitis: 0 N (%)
  Peripheral edema: 5 (13) N (%)
  Pleural Effusion: 1 (3) N (%)
  Pneumatosis intestinalis: 0 N (%)
  Pneumonia: 0 N (%)
  Proteinurea: 0 N (%)
  Pyrexia: 4 (11) N (%)
  Renal Failure: 0 N (%)
  Sinusitis: 4 (11) N (%)
  Small intestinal obstruction (ileus): 0 N (%)
  Troponin I or T increased: 2 (5) N (%)
  Urinary Tract Infection: 5 (13) N (%)
  Vomiting: 13 (34) N (%)
  Weight decreased: 11 (29) N (%)
  White blood cells increased: 0 N (%)

Source: patent US20100189683A1, “Pulsatile Dosing of Gossypol for Treatment of Disease” (Ascenta Therapeutics, Inc., priority 2008, published 2010)
